Results reported in the COVID Moonshot data (paper PMC11187573), “Identification of SARS-CoV-2 Mpro inhibitors through deep reinforcement learning for de novo drug design and computational chemistry approaches” (RSC Medicinal Chemistry, 2024).

Legend:
[1] = molecular target: SARS-CoV-2 Main Protease (SARS-CoV-2) (UniProt P0DTD1)
[2] = molecular target: SARS-CoV-2 Main Protease (SARS-CoV-2) (UniProt P0DTD1); remark: listed apart in the source
Description: Briefly, compounds were seeded into assay-ready plates (Greiner 384PP, cat# 781280) using an ECHO 650T dispenser and DMSO was back-filled for a uniform concentration in assay plates (DMSO concentration < 1%, final volume = 500 nL.). […] After a quick centrifugation step (1000 rpm, 15 s) the plate is incubated for 15 min at room temperature. […] After centrifugation (1000 rpm, 14 s) the reaction is incubated for 10 min (11-mer) or 5 min (37-mer) at room temperature before quenching with 10 % formic acid. The reactions are analysed with MS using RapidFire (RF) 365 high-throughput sampling robot (Agilent) connected to an iFunnel Agilent 6550 accurate mass quadrupole time-of-flight (Q-TOF) mass spectrometer using electrospray. […] Dose response curves uses an 11-point range of 100--0.0017 µM inhibitor concentrations. RapidFire integrator software (Agilent) was used to extract the charged states from the total ion chromatogram data followed by peak integration. For the 11-mer peptide the m/z (+1) charge states of both the substrate (1191.67 Da) and cleaved N-terminal product TSAVLQ (617.34 Da) were used and the 37-mer peptide the m/z (+2) charge states of the substrate (3960.94 Da) and m/z (+1) of the cleaved C-terminal product [sequence] (1125.57 Da). Percentage conversion (product peak integral / (product peak integral + substrate peak integral))*100) and percentage inhibitions were calculated and normalised against DMSO control with deduction of any background signal in Microsoft Excel. IC50s were calculated using Levenberg–Marquardt algorithm used to fit a restrained Hill equation to the dose-response data with both GraphPad PRISM and CDD.

SMILES | inhibition ([1]; 20.0 µM) [%] | inhibition ([1]; 50.0 µM) [%] | IC50 [2] [nM] | inhibition ([2]; 50.0 µM) [%] | relative solubility at 20 uM | relative solubility at 100 uM | inhibition ([2]; 20.0 µM) [%]
C=CC(=O)N(c1ccc(C(C)(C)C)cc1)C(C(=O)NCCc1cccc(F)c1)c1cncc(Cl)c1 (stereo not drawn) | 24.2 | 57.9 | 2110 | 60.6 | 0.71 | 0.32 | –
Cc1cc(NC(=O)Cn2cncc2C)cc(C)c1Cl | 2.9 | 4.88 | – | 25.8 | 1 | 0.99 | –
N#Cc1cccc(NC(=O)Nc2cncc(N)c2)c1 | – | 57.2 | – | 48.4 | 1 | 1 | 9.09
O=C(Nc1ccccc1)c1cc(Cl)ccc1O | 3.75 | 8.41 | – | – | 1 | 0.89 | 0
CCC(C)(C)CCN(Cc1ccsc1)C(=O)Cn1nnc2ccccc21 | – | 48.3 | – | 40.1 | 0.99 | 0.73 | -4.79
CC(=O)NCCc1c[nH]c2c(NCc3ccc4nc[nH]c4c3)cc(F)cc12 | -13.7 | 12.1 | – | -4.42 | 0.64 | 0.86 | –
NS(=O)(=O)c1ccc2c(c1)C(=O)C(=O)N2 | -2.6 | -3.21 | – | 37.1 | 1.01 | 1 | –
Cc1ccncc1NC(=O)CC1CCCNC1 (stereo not drawn) | -1.91 | 16.7 | – | 0 | 1 | 1 | –
Cc1ccncc1NC(=O)CCc1ccn[nH]1 | 18.9 | -26.3 | – | -1.76 | 1 | 1 | –
Cc1ccncc1NC(=O)Cc1cccc(C(N)=O)c1 | 2.66 | -5.83 | – | 0.535 | 1.01 | 1.01 | –
Cc1noc(C)c1CS(=O)(=O)Cc1cccc(Cl)c1 | 1.07 | -0.0149 | – | 0 | 0.99 | 1 | –
CN(CC1COc2ccccc2O1)C(=O)c1cc(=O)[nH]c2cc(F)ccc12 (stereo not drawn) | -3.67 | 15.3 | – | 0 | 0.98 | 0.99 | –
Cc1cccc(NC(=O)C(C#N)C(=O)C2CC2)c1 (stereo not drawn) | – | 5.88 | – | 0.517 | 0.99 | 0.99 | 0.422
O=C(CCl)N1CCN(C(c2ccccc2)c2ccccc2)CC1 | – | 108 | 386 | 100 | -0.2 | 0.01 | 100
Cc1ccncc1NC(=O)C1C2CCOCC21 (stereo not drawn) | -18.9 | -10.8 | – | 0 | 1 | 1 | –
Cc1noc([C@@H](C)S(=O)(=O)Cc2cccc(C(F)(F)F)c2)n1 (stereo in doubt) | -7.05 | -6.94 | – | 0 | 1.01 | 1 | –
CC1CCCC(OCc2cccc(NC(=O)NC(C)c3ccn[nH]3)c2)C1 (stereo not drawn) | – | -40.1 | – | 0 | 1 | 0.85 | 0
Cc1noc(C)c1NC(=O)Cc1cccc(Cl)c1Cl | -2.3 | -6.85 | – | 0 | 1 | 1 | –
Cc1ccncc1NC(=O)CC(C)(C)NC(=O)c1cccc2[nH]ccc12 | – | -10.4 | – | 0 | 0.99 | 0.99 | 0
O=C(NCCNc1cccnn1)c1ccccc1NS(=O)(=O)c1cc(F)ccc1F | – | 7.83 | – | 12.1 | 1 | 1 | 0
Cc1[nH]ncc1NC(=O)Cc1cccc(Cl)c1 | 3.64 | 6.93 | – | 52.1 | 0.99 | 1 | –
Cc1ccncc1NC(=O)CN1CCOCC1 | -2.39 | -7.76 | – | 5.7 | 1 | 1 | –
COc1ccc2c(c1)C(C(=O)Nc1cnccc1-n1cccn1)CCC2 (stereo not drawn) | -15.2 | 7.3 | – | 0 | 0.99 | 0.95 | –
O=C(Cc1cccnc1)Nc1cc(Cl)ccc1O | -1.54 | 23.3 | – | 6.62 | 1.01 | 0.98 | –
O=C(NC1CCCCC1NC(=O)C1CCCCC1)c1ccncc1 (stereo not drawn) | -14.4 | -20.6 | – | – | 1 | 1 | 0
N#Cc1ccccc1S(=O)(=O)N1CCN(C(=O)c2cc(=O)[nH]c3cc(F)ccc23)CC1 | 1.1 | 52.4 | – | 0 | 0.94 | 0.95 | –

SMILES | inhibition ([1]; 20.0 µM) [%] | inhibition ([1]; 50.0 µM) [%] | IC50 [2] [nM] | inhibition ([2]; 50.0 µM) [%] | relative solubility at 20 uM | relative solubility at 100 uM | inhibition ([2]; 20.0 µM) [%]
CC(C)(C)NC(=O)C(c1cccnc1)N(C(=O)c1ccco1)c1ccc(C(C)(C)C)cc1 (stereo not drawn) | 74 | 86.6 | – | 23.9 | 1.01 | 0.99 | –
Cc1ccncc1NC(=O)c1cccc(NC(=O)Nc2cccnc2)c1 | – | -23.3 | – | 1.27 | 1 | 1 | 2.38
O=C(NCc1cccnn1)Nc1cccc(N2CCC2=O)c1 | 3.61 | 6.82 | – | 0 | 1 | 1 | 0
Cc1ccnc(C)c1NC(=O)C1CC2CC2C1 (stereo not drawn) | 10.2 | 15.6 | – | 0 | 1 | 1 | –
C=CC(=O)N(c1ccc(C(C)(C)C)cc1)C(C(=O)Nc1ccc(OC)cc1C)c1cccnc1 (stereo not drawn) | – | 22.4 | – | -2.25 | 0.97 | 0.57 | 0
NS(=O)(=O)CCc1ccccc1CN1CCN(C(=O)CCl)CC1 | 101 | 103 | 834 | 100 | 1 | 1 | –
C=CC(=O)N(c1ccc(C(C)(C)C)cc1)C(C(=O)NCCc1cccc(F)c1)c1cncc(C#N)c1 (stereo not drawn) | 49.6 | 87.1 | 2470 | 89.2 | 0.57 | 0.46 | –
C=CC(=O)N(c1ccc(C(C)(C)C)cc1)C(C(=O)NC(C)(C)C)c1cncc2ccccc12 (stereo not drawn) | -17.7 | -17.5 | – | 0 | 0.85 | 0.56 | 0
N#Cc1cc(Cl)cc(NC(=O)Nc2cccnc2)c1 | 23 | 43.9 | – | 36.5 | 0.99 | 0.88 | 6.78
C=CC(=O)N(c1ccc(SC)cc1)C(C(=O)Nc1c(C)cccc1CC)c1cccnc1 (stereo not drawn) | 11.1 | 24.5 | – | – | 0.85 | 0.67 | 0
O=C(CCl)N1CCCC(c2nc(-c3cccnc3)nc3ccccc23)C1 (stereo not drawn) | 7.84 | 31.8 | – | 100 | 0.9 | 0.89 | –
Cc1cc(CC(=O)Nc2cnccc2C)[nH]n1 | -4.28 | 0.404 | – | 4.87 | 1 | 1 | –
Nc1ncncc1CNC(=O)Nc1ccccc1OCCn1ccnc1 | – | 15.8 | – | 9.19 | 1 | 1 | 1.47
COc1cccc(N2CCN(C(=O)c3cc(=O)[nH]c4ccccc34)CC2)c1 | 78.5 | 90.8 | 19700 | 83.3 | 0.99 | 0.95 | –
O=C(Cc1cc(Cl)cc(Cl)c1)Nc1nncs1 | 13.9 | -0.821 | – | 0 | 0.84 | 0.7 | –
C=CC(=O)N(c1ccc(N(C)C)c(C)c1)C(C(=O)Nc1c(C)cccc1CC)c1cccnc1 (stereo not drawn) | 6.4 | 13.2 | – | – | 0.9 | 0.77 | 0
COc1ccc(-c2cccc(S(=O)(=O)N3CCN(C(C)=O)CC3)c2)cc1 | -3.55 | 2.93 | – | 0 | 0.95 | 0.93 | –
C=CC(=O)N(c1ccc(C(C)(C)C)cc1)C(C(=O)NC(C)(C)C)c1cncc(OC)c1C (stereo not drawn) | 8.6 | 28.6 | – | 39 | 0.99 | 0.95 | 8.1
CC(C)[C@@H](C#N)NS(=O)(=O)c1ccc(CF)cc1 (stereo in doubt) | – | -14 | – | 22.1 | 1 | 1 | 1.55
O=C(Nc1ccccc1OC1CCN(Cc2ccccc2)CC1)C1CCN(C(=O)CCl)CC1 | 6.3 | 16.5 | – | -1.57 | 0.94 | 0.95 | –
O=C(Cc1c[nH]c2ncccc12)NCc1cc(Cl)ccn1 | 2.58 | 8.45 | – | – | 1 | 0.98 | 0
O=C(Cc1c[nH]c2ncccc12)N(Cc1c(F)cccc1Cl)c1ccc2[nH]c(=O)[nH]c2c1 | 6.29 | -1.08 | – | 12.4 | 0.95 | 0.88 | –
CCN(CC1COc2ccccc2O1)C(=O)c1cc(=O)[nH]c2ccc(Cl)cc12 (stereo not drawn) | 8.72 | 2.69 | – | 0 | 0.95 | 0.89 | –
Cc1ccncc1NC(=O)Cc1cccc(CO)c1 | 2.87 | 6.05 | – | 1.14 | 1 | 1 | –
CCCN(C(=O)Cc1cccc(Cl)c1)c1cccnc1 | 2.28 | 3.25 | – | 36.2 | 1 | 1 | –
C=CC(=O)N(c1ccc(C(C)(C)C)cc1)C(C(=O)NCC)c1cccnc1 (stereo not drawn) | 57 | 50.2 | 19400 | 100 | 0.99 | 1 | 52.6

SMILES | inhibition ([1]; 20.0 µM) [%] | inhibition ([1]; 50.0 µM) [%] | IC50 [2] [nM] | inhibition ([2]; 50.0 µM) [%] | relative solubility at 20 uM | relative solubility at 100 uM | inhibition ([2]; 20.0 µM) [%]
O=C(NCCOc1ccccc1)c1cc(=O)[nH]c2ccccc12 | 12.7 | 54.6 | – | 3.05 | 1 | 1 | –
CC(=O)NCc1cccc(NC(=O)Cc2cncnc2)c1 | 3.15 | 6.22 | – | 0 | 1.01 | 1 | –
Cc1nnc(CNC(=O)C2CCOc3ccc(Cl)cc32)n1C1CC1 (stereo not drawn) | 6.91 | 0.282 | – | 0 | 1 | 1 | –
N#Cc1ccc(S(=O)(=O)N2CCN(C(=O)c3cc(=O)[nH]c4cc(F)ccc34)CC2)cc1 | 6.9 | 39.9 | – | 0.23 | 0.94 | 0.94 | –
C=CC(=O)N1CCN(S(=O)(=O)c2ccccc2-c2ccc(Nc3ccc(C#N)cn3)cc2)CC1 | -11.3 | -6.3 | – | 0 | 0.75 | 0.61 | –
CC1CC(C)CN(C(=O)c2ccccc2NC(=O)NCc2ccoc2)C1 (stereo not drawn) | – | 8.34 | – | 0 | 1 | 0.99 | 0
Cc1ccncc1NC(=O)C12CC(CO1)C2 | -0.804 | 12.2 | – | 0 | 1 | 1 | –
COc1ccccc1OC1CCCN(C(=O)c2cc(=O)[nH]c3ccc(Cl)cc23)C1 (stereo not drawn) | -0.617 | 5.27 | – | 0 | 0.99 | 0.93 | –
CC(C(=O)Nc1cccc(OC2CC(=O)N2)c1)c1cnccn1 (stereo not drawn) | – | 17 | – | 0 | 1 | 1 | 0
C#Cc1cccc(N(C(=O)C=C)C(C(=O)NC(C)(C)C)c2cccnc2)c1 (stereo not drawn) | -3.84 | 3.7 | – | – | 1 | 1.01 | 0
C=CC(=O)N(c1ccc(C2(C)CC2)cc1)C(C(=O)Nc1c(C)cccc1CC)c1cccnc1 (stereo not drawn) | – | 20.9 | – | 20.4 | 0.8 | 0.68 | 0
N#CCN1CCN(Cc2cc(Cl)cc3ccccc23)CC1 | – | 5.55 | – | 10.2 | 0.91 | 0.92 | 10.4
C=CC(=O)N(c1ccc(C(C)(C)C)cc1)C(C(=O)NC1CCCC1)c1cccnc1 (stereo not drawn) | -10.5 | -12.8 | – | 1.68 | 1.01 | 1 | 0
CC(=O)Nc1ccc(NCC(=O)Nc2cnccc2C)cc1 | -2.21 | -24.3 | – | 0 | 0.96 | 0.9 | –
NS(=O)(=O)c1ccc(N2CCC(N3CCCCCC3)CC2)cc1 | -1.25 | 0.117 | 15800 | 100 | 1 | 1 | –
Cc1ccc(C)c(N(C)C(=O)Cc2cnn(C)c2C)c1 | 7.75 | 11.4 | – | 0 | 0.97 | 0.98 | –
C=CC(=O)N1CCN(Cc2cc(Cl)cc3ccccc23)CC1 | – | 37.9 | – | 0 | 0.86 | 0.75 | 0
CC(=O)N[C@@H](Cc1ccc(O)cc1)C(=O)NCc1ccc(Br)cc1 (stereo in doubt) | -20.1 | -24.8 | – | – | 1 | 0.99 | 0
Cc1ccncc1NC(=O)C1(c2cccc(Cl)c2)CC1 | 38.4 | 61.6 | – | 43.3 | 1.01 | 1 | –
CSc1ccncc1NC(=O)Cc1ccc2c(c1)CCCC2 | -1.16 | 11.6 | – | 0 | 0.99 | 0.67 | –
CC(=O)N1CCN(Cc2cccc(C#N)c2)CC1 | -0.339 | 6.59 | – | – | 1 | 0.99 | 0
CC(OCC1CCCCO1)C(=O)N(CCc1ccccc1)Cc1cccnc1 (stereo not drawn) | – | -20.6 | – | 0 | 1 | 1 | 0
O=C(NCc1cccc(C(=O)N2CCOCC2)c1)c1cnc2c(c1)c(=O)[nH]c(=O)n2Cc1ccccc1 | 2.69 | -3.76 | – | 0 | 0.99 | 0.9 | –
Cc1ccnc(NC(=O)Cc2ccc3ccccc3c2)c1 | 3.57 | 8.23 | – | – | 0.98 | 0.94 | 0
Cc1ccncc1NC(=O)[C@@H]1C[C@H]1CF (stereo in doubt) | 4.1 | 3.57 | – | 3.35 | 1 | 1 | –
